# Measured values published in patent publication US20040057926A1, “Modulation of the immune response through the manipulation of arginine levels” (LSU Medical Center, priority 2002, published 2004).
# Experiments:
# Jurkat cells = assay: Co-culture in transwells of stimulated PM and Jurkat cells, CD3ζ expression; format: cell-based; conditions: for CD3ζ in Jurkat cells co-cultured with PM stimulated with IL-4+IL-13: NOHA 100 μM, Nor-NOHA 50 μM, L-Arg 2 mM, L-NIL 5 μg/ml, catalase 200 U/ml, L-NMMA, L-NNA, L-NAME 1 mM; for induction of CD3ζ down-regulation by excess of the substance: data not shown
# Procedure: PM were cultured in 6 well plates in RPMI containing 150 μM L-Arg and stimulated with murine rIL-4 (50 U/ml) and murine rIL-13 (50 ng/ml), or murine rIFN-γ (100 U/ml) for 24 hours. Then 1×10^6 normal T-cells stimulated with anti-CD3 plus anti-CD28 or 1×10^6 Jurkat cells, were cultured in the top chamber of a transwell system having 0.4 μm pores (Falcon, Franklin lakes, N.J.). CD3ζ expression was measured in Jurkat cells or T lymphocytes at different time points. PM were detached using trypsin/EDTA and the expression of protein and RNA for CAT-2B, ASE I, ASE II and iNOS was tested by western blot and northern blot respectively. Cytoplasmic extracts from PM were used to test ASE activity. Supernatants from stimulated PM were used to measure NO production using the Griess reagent method (Molecular Probes, Eugene, Oreg.). In addition, the extra-cellular concentration of L-Arg was tested in supernatants by HPLC (Dr. Gu Yao Wu laboratory, University of Texas) as described previously. O'Quinn, P. R., D. A. Knabe, and G. Wu. 2002. Arginine catabolism in lactating porcine mammary tissue. J Anim Sci. 80:467-474.
# Flow cytometry analysis was performed as previously described. Taheri, F., J. B. Ochoa, Z. Faghiri, K. Culotta, H. J. Park, M. S. Lan, A. H. Zea, and A. C. Ochoa. 2001. L-Arginine regulates the expression of the T-cell receptor zeta chain (CD3zeta) in Jurkat cells. Clin Cancer Res 7:958s-965s. Briefly, 5×10^5 Jurkat cells or T lymphocytes were washed once with Dulbecco phosphate-buffered saline 1× (D-PBS) and resuspended in 200 μL of D-PBS containing 1 μg of anti-CD3ε or isotype control. Cells were incubated for 15 min at 4° C., washed with D-PBS and resuspended in 200 μl D-PBS containing 500 μg/ml of digitonin plus 1 μg of anti-CD3ζ or 1 μg of isotypic control. Cells were incubated for 8 minutes after which they were washed and resuspended in 400 μl of D-PBS. Fluorescence acquisition and analysis were done using a Coulter-EPICS XL flow cytometer (Beckman-Coulter) with a 488 nm argon laser. The data were expressed as mean channel fluorescence intensity (MFI).
# T-cells = assay: Lysosome and proteasome inhibition, CD3ζ expression in T-cells; format: cell-based, human; conditions: lactacystin 2.5 μM, bafylomycin A1 1 μM
# Procedure: To inhibit lysosome function 2×10^6 T-cells cultured in the presence or absence of L-arginine, were treated with 1 μM bafylomycin A1 (Calbiochem, San Diego, Calif.) or 1 μM folimycin (Calbiochem) during the course of the experiments begining at time 0 (start of the cultures), 24, 48 and 72 hours after stimulation. To inhibit proteasome activity 2.5 μM lactacystin (Calbiochem) was added to the cultures at the same time points. DMSO was used as a control vehicle in all the cases. The CD3ζ expression was tested by flow cytometry 24 hours after the addition of the inhibitors.
# [1] = format: cell-based; conditions: within 24 h, trypan blue exclusion
# Procedure: To further explore possible mechanisms leading to a decreased T-cell response induced by the H. pylori sonicate, various aspects of T-cell signal transduction were studied. […] The expression of the CD3ζ chain, the main signaling element of the T-cell antigen receptor, were then tested. […] Harris, P. R., et al. J. Infect. Dis. 178, pp. 1516-1520 (1998); Zhang, Q. B., et al. Gut 38, pp. 841-845 (1996). Therefore some of these H. pylori proteins were tested to determine whether they could reduce CD3ζ expression. The recombinant proteins CagA, VacA, urease A (UreA), urease B (UreB) were titrated up to 10 μg/ml, a concentration where they caused cell death within 24 h as determined by trypan blue exclusion. […] Harris, P. R., et al. J. Infect. Dis. 178, pp. 1516-1520 (1998); Pai, R., et al. Biochem. Biophys. Res. Commun. 262, pp. 245-250 (1999); Rudnicka, W., et al. J. Physiol Pharmacol. 49, pp. 111-119 (1998); Tanahashi, T., et al. Infect. Immun. 68, pp. 664-671 (2000).
molecule,measurement,setting,value
"COC(=O)[C@@H](N)CCCNC(=N)N[N+](=O)[O-] [L-NAME, N-NO2-L-Arg-OMe]",CD3ζ in Jurkat cells co-cultured with PM stimulated with IL-4+IL-13,Jurkat cells,did not prevent CD3ζ decrease
CC(=N)NCCCC[C@H](N)C(=O)O [L-NIL],CD3ζ in Jurkat cells co-cultured with PM stimulated with IL-4+IL-13,Jurkat cells,did not prevent CD3ζ down-regulation
"N=C(NCCC[C@H](N)C(=O)O)N[N+](=O)[O-] [L-NNA, N-NO2-L-Arg]",CD3ζ in Jurkat cells co-cultured with PM stimulated with IL-4+IL-13,Jurkat cells,did not prevent CD3ζ decrease
NCCC[C@H](N)C(=O)O [L-ornithine],induction of CD3ζ down-regulation by excess of the substance,Jurkat cells,did not induce CD3ζ down-regulation
"CNC(=N)NCCC[C@H](N)C(=O)O [NMMA, L-mono-methyl-L-Arg]",CD3ζ in Jurkat cells co-cultured with PM stimulated with IL-4+IL-13,Jurkat cells,partially prevented the CD3ζ down-regulation
"CO/C1=C\C(C)=C\[C@@H](C)[C@@H](O)[C@@H](C)C/C(C)=C/C=C/[C@H](OC)[C@@H]([C@@H](C)[C@@H](O)[C@H](C)[C@@]2(O)C[C@@H](O)[C@H](C)[C@@H](C(C)C)O2)OC1=O [bafilomicyn, bafylomycin A1]",decrease of CD3ζ upon stimulation with proteosome or lysosome inhibitor,T-cells,failed to prevent the decrease of CD3ζ upon stimulation
CC(=O)N[C@@H](CSC(=O)[C@]1([C@@H](O)C(C)C)NC(=O)[C@H](C)[C@@H]1O)C(=O)O [lactacystin],decrease of CD3ζ upon stimulation with proteosome or lysosome inhibitor,T-cells,failed to prevent the decrease of CD3ζ upon stimulation
NC(N)=O [urea],induction of CD3ζ down-regulation by excess of the substance,Jurkat cells,did not induce CD3ζ down-regulation
same,concentration where they caused cell death,[1],10000 ng/mL
Catalase,CD3ζ in Jurkat cells co-cultured with PM stimulated with IL-4+IL-13,Jurkat cells,did not prevent the decrease of CD3ζ
UreB: recombinant H. pylori urease B,concentration where they caused cell death,[1],10000 ng/mL
"CagA: recombinant H. pylori protein CagA (protein, UniProt P55980 1-1186, looked up) Cytotoxicity-associated …: MTNETIDQTRTPDQTQSQTAFDPQQFINNLQVAFIKVDNVVASFDPDQKPIVDKNDRDNRQAFDGISQLREEYSNKAIKNPTKKNQYFSDFIDKSNDLINKDNLIDVESSTKSFQKFGDQRYQIFTSWVSHQKDPSKINTRSIRNFMENIIQPPIPDDKEKAEFLKSAKQSFAGIIIGNQIRTDQKFMGVFDESLKERQEAEKNGGPTGGDWLDIFLSFIFNKKQSSDVKEAINQEPVPHVQPDIATTTTDIQGLPPEARDLLDERGNFSKFTLGDMEMLDVEGVADIDPNYKFNQLLIHNNALSSVLMGSHNGIEPEKVSLLYAGNGGFGDKHDWNATVGYKDQQGNNVATLINVHMKNGSGLVIAGGEKGINNPSFYLYKEDQLTGSQRALSQEEIRNKVDFMEFLAQNNTKLDNLSEKEKEKFQNEIEDFQKDSKAYLDALGNDRIAFVSKKDTKHSALITEFNNGDLSYTLKDYGKKADKALDREKNVTLQGSLKHDGVMFVDYSNFKYTNASKNPNKGVGATNGVSHLEAGFNKVAVFNLPDLNNLAITSFVRRNLENKLTAKGLSLQEANKLIKDFLSSNKELAGKALNFNKAVAEAKSTGNYDEVKKAQKDLEKSLRKREHLEKEVEKKLESKSGNKNKMEAKAQANSQKDEIFALINKEANRDARAIAYTQNLKGIKRELSDKLEKISKDLKDFSKSFDEFKNGKNKDFSKAEETLKALKGSVKDLGINPEWISKVENLNAALNEFKNGKNKDFSKVTQAKSDLENSVKDVIINQKVTDKVDNLNQAVSVAKAMGDFSRVEQVLADLKNFSKEQLAQQAQKNEDFNTGKNSELYQSVKNSVNKTLVGNGLSGIEATALAKNFSDIKKELNEKFKNFNNNNNGLKNSTEPIYAKVNKKKTGQVASPEEPIYTQVAKKVNAKIDRLNQIASGLGGVGQAAGFPLKRHDKVDDLSKVGLSASPEPIYATIDDLGGPFPLKRHDKVDDLSKVGRSRNQELAQKIDNLNQAVSEAKAGFFGNLEQTIDKLKDSTKKNVMNLYVESAKKVPASLSAKLDNYAINSHTRINSNIQNGAINEKATGMLTQKNPEWLKLVNDKIVAHNVGSVSLSEYDKIGFNQKNMKDYSDSFKFSTKLNNAVKDIKSGFTHFLANAFSTGYYCLARENAEHGIKNVNTKGGFQKS",concentration where they caused cell death,[1],10000 ng/mL
